Results: patent publication US5409933A, “Quinoline derivatives and processes for preparing the same” (priority 1993, dated 1995)
Where a name gives a salt, the structure may show the parent alone. Read-outs that look alike come from different tables or passages of the source.

Tests used:
Assay in all cases: In Vitro Anti-Bacterial Activity Test (MIC, agar dilution)
Type in all cases: cell-based
[1] = test system: Enterobacter cloacae 1321E
Summary of the method: (§1)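 MIC was determined by agar dilution on Mueller-Hinton agar. Each strain was inoculated at 10^7 C.F.U./ml, and growth was observed after 18 hours at 37° C, with ciprofloxacin as control agent.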

Enterobacter cloacae P99 = settings: Enterobacter cloacae, P99, 18 h
Summary of the method: (§2)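 Each strain, at 10^7 C.F.U./ml, was spotted onto Muller-Hinton agar carrying serial compound dilutions. Growth after an 18-hour incubation at 37° C. defined the minimum inhibitory concentration.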

Escherichia coli 078 = test system: Escherichia coli 078
Summary of the method: as §1

Escherichia coli 1507E = settings: Escherichia coli, 1507E, 18 h, Muller-Hinton agar, 37° C.
Summary of the method: as §1

Escherichia coli DC0 = settings: Muller-Hinton agar, 37° C., 18 hours, read-out: MIC
Summary of the method: as §1

Escherichia coli DC2 = settings: Escherichia coli, DC2, 18 h
Summary of the method: as §1

Escherichia coli TEM = settings: Escherichia coli, 18 h, Muller-Hinton agar, 37° C.
Summary of the method: as §2

[2] = test system: Klebsiella aerogenes 1522E; settings: Klebsiella aerogenes, 1522E, 18 h, Klebsiella aerogenes 1522E; Muller-Hinton agar, 37° C., 18 hours; read-out: MIC
Summary of the method: as §1

Klebsiella oxytoca 1082E = settings: Klebsiella oxytoca 1082E; Muller-Hinton agar, 37° C., 18 hours; read-out: MIC
Summary of the method: as §1

[3] = test system: Pseudomonas aeruginosa 1592E; settings: Muller-Hinton agar, 37° C., 18 hours, read-out: MIC
Summary of the method: as §1

[4] = test system: Pseudomonas aeruginosa 1771M; settings: Pseudomonas aeruginosa, 1771M, 18 h, Muller-Hinton agar, 37° C.
Summary of the method: as §1

[5] = test system: Pseudomonas aeruginosa 1771; settings: Pseudomonas aeruginosa 1771; Muller-Hinton agar, 37° C., 18 hours; read-out: MIC
Summary of the method: as §1

[6] = test system: Pseudomonas aeruginosa 9027; settings: Muller-Hinton agar, 37° C., 18 hours, read-out: MIC
Summary of the method: as §1

Salmonella typhimurium = settings: Salmonella enterica; Salmonella typhimurium; Muller-Hinton agar, 37° C., 18 hours; read-out: MIC
Summary of the method: as §1

[7] = test system: Staphylococcus aureus 285; settings: Staphylococcus aureus, 285, 18 h, Staphylococcus aureus 285; Muller-Hinton agar, 37° C., 18 hours; read-out: MIC
Summary of the method: as §1

[8] = test system: Staphylococcus aureus 503; settings: Staphylococcus aureus 503; Muller-Hinton agar, 37° C., 18 hours; read-out: MIC
Summary of the method: as §1

[9] = test system: Staphylococcus aureus SG511; settings: Staphylococcus aureus SG511; Muller-Hinton agar, 37° C., 18 hours; read-out: MIC
Summary of the method: as §1

[10] = test system: Streptococcus faecium MD8b; settings: Enterococcus faecium, Muller-Hinton agar, 37° C., 18 hours, read-out: MIC
Summary of the method: as §1

[11] = test system: Streptococcus pyogenes 308A; settings: Muller-Hinton agar, 37° C., 18 hours, read-out: MIC
Summary of the method: as §1

[12] = test system: Streptococcus pyogenes 77A
Summary of the method: as §1

[13] = Enterobacter cloacae 1321E, Muller-Hinton agar, 37° C., 18 hours, read-out: MIC
[14] = Escherichia coli 078, Muller-Hinton agar, 37° C., 18 hours, read-out: MIC
[15] = Streptococcus pyogenes 77A, Muller-Hinton agar, 37° C., 18 hours, read-out: MIC
[16] = Enterobacter cloacae, 1321E, 18 h

| SMILES | MIC [1, 13] [µg/mL] | MIC (Enterobacter cloacae P99) [µg/mL] | MIC (Escherichia coli 1507E) [µg/mL] | MIC (Escherichia coli DC0) [µg/mL] | MIC (Escherichia coli DC2) [µg/mL] | MIC (Escherichia coli TEM) [µg/mL] | MIC [2] [µg/mL] | MIC (Klebsiella oxytoca 1082E) [µg/mL] | MIC [3] [µg/mL] | MIC [4] [µg/mL] | MIC [5] [µg/mL] | MIC [6] [µg/mL] | MIC (Salmonella typhimurium) [µg/mL] | MIC [7] [µg/mL] | MIC [8] [µg/mL] | MIC [9] [µg/mL] | MIC [10] [µg/mL] | MIC [11] [µg/mL] | MIC [12, 15] [µg/mL] | MIC (Escherichia coli 078; Escherichia coli, 078, 18 h) [µg/mL] | also measured |
| --- | --- | --- | --- | --- | --- | --- | --- | --- | --- | --- | --- | --- | --- | --- | --- | --- | --- | --- | --- | --- | --- |
| NCC1CCN(c2c(F)cc3c(=O)c(C(=O)C[N+](=O)[O-])cn(C4CC4)c3c2Cl)C1 (stereo not drawn) [Example 53, 1-cyclopropyl-6-fluoro-8-chloro-7-(3-aminomethylpyrrolidin-1-yl)-3-(2-nitroacetyl)-1,4-dihydro-4-oxoquinoline hydrochloride] | < 0.002 | 0.013 | 0.025 | 0.195 | 0.049 | 0.013 | 0.013 | < 0.002 | 0.391 | 0.195 | 0.781 | 0.781 | 0.013 | 0.007 | 0.013 | 0.013 | 0.049 | 0.098 | 0.049 | – | MIC (Escherichia coli 078; [14]): < 0.002 µg/mL |
| CCOC(=O)C(C(=O)OCC)C(=O)c1cn(C2CC2)c2c(Cl)c(N3CC[C@@H](NC)C3)c(F)cc2c1=O [Example 55, 1-cyclopropyl-6-fluoro-8-chloro-7-(3-3R-methylaminopyrrolidin-1-yl)-3-(2,2-diethoxycarbonylacetyl)-1,4-dihydro-4-oxoquinoline hydrochloride] | 0.049 | 0.025 | 0.025 | 0.391 | 0.098 | 0.025 | 0.049 | 0.025 | 0.391 | 0.195 | 0.391 | 1.56 | 0.013 | 0.195 | 0.195 | 0.098 | 0.391 | 1.56 | 0.391 | 0.013 | – |
| CCOC(=O)C(C(=O)OCC)C(=O)c1cn(C2CC2)c2c(Cl)c(N3CC[C@H](NC)C3)c(F)cc2c1=O [Example 56, 1-cyclopropyl-6-fluoro-8-chloro-7-(3-3S-methylaminopyrrolidin-1-yl)-3-(2,2-diethoxycarbonylacetyl)-1,4-dihydro-4-oxoquinoline hydrochloride] | 0.049 | 0.013 | 0.013 | 0.195 | 0.049 | 0.013 | 0.049 | 0.013 | 0.391 | 0.098 | 0.391 | 0.781 | 0.007 | 0.098 | 0.098 | 0.049 | 0.195 | 0.781 | 0.195 | 0.007 | – |
| CCOC(=O)C(C(=O)OCC)C(=O)c1cn(C2CC2)c2c(Cl)c(N3CCC(NC)C3)c(F)cc2c1=O (stereo not drawn) [Example 57, 1-cyclopropyl-6-fluoro-8-chloro-7-(3-methylaminopyrrolidin-1-yl)-3-(2,2-diethoxycarbonylacetyl)-1,4-dihydro-4-oxoquinoline hydrochloride] | 0.049 | 0.013 | 0.013 | 0.049 | 0.025 | 0.013 | 0.049 | 0.049 | 0.781 | 0.195 | 0.391 | 1.56 | 0.013 | 0.195 | 0.195 | 0.049 | 0.098 | 0.781 | 0.195 | 0.007 | – |
| CCOC(=O)C(C(=O)OCC)C(=O)c1cn(C2CC2)c2c(OC)c(N3CC[C@@H](NC)C3)c(F)cc2c1=O [Example 58, 1-cyclopropyl-6-fluoro-8-methoxy-7-(3-3R-methylaminopyrrolidin-1-yl)-3-(2,2-diethoxycarbonylacetyl)-1,4-dihydro-4-oxoquinoline hydrochloride] | 0.098 | 0.098 | 0.391 | 1.56 | 0.195 | 0.098 | 0.195 | 0.049 | 1.56 | 0.781 | 1.56 | 1.56 | 0.195 | 0.195 | 0.195 | 0.195 | 1.56 | 1.56 | 1.56 | 0.098 | – |
| CCOC(=O)C(C(=O)OCC)C(=O)c1cn(C2CC2)c2c(OC)c(N3CCC(NC)C3)c(F)cc2c1=O (stereo not drawn) [Example 60, 1-cyclopropyl-6-fluoro-8-methoxy-7-(3-methylaminopyrrolidin-1-yl)-3-(2,2-diethoxycarbonylacetyl)-1,4-dihydro-4-oxoquinoline hydrochloride] | 0.098 | 0.098 | 0.195 | 0.781 | 0.098 | 0.098 | 0.195 | 0.013 | 1.56 | 0.781 | 1.56 | 1.56 | 0.098 | 0.195 | 0.098 | 0.195 | 0.781 | 1.56 | – | 0.098 | MIC ([12]; Streptococcus pyogenes, 77A, 18 h): 0.781 µg/mL |
| CN[C@@H]1CCN(c2c(F)cc3c(=O)c(C(=O)C[N+](=O)[O-])cn(C4CC4)c3c2Cl)C1 [Example 61, 1-cyclopropyl-6-fluoro-8-chloro-7-(3-3R-methylaminopyrrolidin-1-yl)-3-(2-nitroacetyl)-1,4-dihydro-4-oxoquinoline hydrochloride] | – | 0.007 | 0.007 | 0.049 | 0.013 | 0.007 | 0.013 | 0.004 | 0.195 | 0.098 | 0.195 | 0.195 | 0.004 | 0.025 | 0.025 | 0.013 | 0.098 | 0.391 | 0.098 | – | MIC [1, 16]: 0.007 µg/mL; MIC (Escherichia coli 078; [14]): < 0.002 µg/mL |
| CN[C@H]1CCN(c2c(F)cc3c(=O)c(C(=O)C[N+](=O)[O-])cn(C4CC4)c3c2Cl)C1 [Example 62, 1-cyclopropyl-6-fluoro-8-chloro-7-(3-3S-methylaminopyrrolidin-1-yl)-3-(2-nitroacetyl)-1,4-dihydro-4-oxoquinoline hydrochloride] | – | 0.007 | 0.007 | 0.025 | 0.013 | 0.007 | 0.007 | < 0.002 | 0.098 | 0.098 | 0.098 | 0.195 | 0.025 | 0.025 | 0.013 | 0.013 | 0.049 | 0.098 | 0.049 | – | MIC [1, 16]: 0.007 µg/mL; MIC (Escherichia coli 078; [14]): < 0.002 µg/mL |
| CNC1CCN(c2c(F)cc3c(=O)c(C(=O)C[N+](=O)[O-])cn(C4CC4)c3c2Cl)C1 (stereo not drawn) [Example 63, 1-cyclopropyl-6-fluoro-8-chloro-7-(3-methylaminopyrrolidin-1-yl)-3-(2-nitroacetyl)-1,4-dihydro-4-oxoquinoline hydrochloride] | 0.013 | 0.013 | 0.007 | 0.098 | 0.025 | 0.007 | 0.013 | 0.007 | 0.195 | 0.049 | 0.195 | 0.391 | 0.004 | 0.049 | 0.049 | 0.025 | 0.098 | 0.391 | 0.098 | – | MIC (Escherichia coli 078; [14]): < 0.002 µg/mL |
